# Test system: Fc region (Jackson ImmunoResearch Laboratories, Inc.) labeled with horseradish peroxidase (HRP)
# Assay: ELISA of recombinant phages displaying polypeptides (Example 2, 6)
# Assay type: binding, human
# Conditions: recombinant T7 phage displaying the polypeptide; absorbance at 415 nm; control 0.098
# Experimental: 6) In this section, it will be stated as an example that the binding activity of recombinant phages transformed by nucleic acids encoding amino acid sequences represented by SEQ ID NOs: 26, 27, 30 to 55, 57, 63 to 72 and 79 to 81 was measured by Enzyme Linked Immuno-Sorbent Assay (ELISA).
# DNA molecules encoding amino acid sequences of SEQ ID NOs: 26, 27, 30 to 55, 57, 63 to 72 and 79 to 81 were amplified by a polymerase chain reaction (PCR) using KOD DNA polymerase (TOYOBO) under the reaction conditions according to the accompanying manual. Each of the amplified DNA was digested with restriction enzymes EcoRI and HindIII, and ligated to the 3′ terminal of g10 gene on T7 phage genomic DNA. Ligation to T7 phage genomic DNA was performed by use of a sample attached to T7Select10-3 Cloning Kit (Novagen) under the reaction conditions and in accordance with the procedure described in T7Select (registered trade mark) System Manual. Using T7 phage genomic DNA ligated, T7 phage was packaged in a test tube by T7Select Packaging Kit (Novagen) under the reaction conditions in accordance with T7Select (registered trade mark) System Manual (Novagen). Subsequently, phage plaque was formed in accordance with T7Select (registered trade mark) System Manual (Novagen). From each of the plaques, a recombinant phage displaying the polypeptide was isolated. To MICROTEST (registered trade mark) 96 (BECTON, DICKINSON AND COMPANY), a culture solution (0.2 mL) of Escherichia coli BL5403 strain cultured in LB medium until O.D.600 reached 1.0 was poured to infect with the Escherichia coli cells each of the recombinant phages isolated from plaques and allowed to stand still 37° C. for 12 hours to proliferate phages. The culture solution (10 μL) containing these phages was diluted in 90 μL of TBS buffer (50 mM Tris-HCl, 150 mM NaCl, pH 7.4) to prepare measurement samples.
# The measurement samples were poured to MEDISORP 96 well microplate (Nunc) and allowed to stand still for one hour to allow the phage to physically adsorb to the plate. The supernatant was removed and SuperBlock (registered trade mark) T20 (TBS) Blocking Buffer (Thermo […]) (150 μL) was poured to the plate and allowed to stand still for one hour to block the surface of the plate. The plate was washed three times with TBS-T buffer (50 mM Tris-HCl, 150 mM NaCl, 0.1% Tween 20 (registered trade mark), pH 7.4). To the plate, TBS-T buffer (100 μL) containing an Fc region (Jackson ImmunoResearch Laboratories, Inc.) (0.2 μg/mL) labeled with horseradish peroxidase (HRP) was added and allowed to stand still for one hour. After the plate was washed three times with TBS-T buffer, ABTS One Component HRP Microwell Substrate (BioFX) (100 μL) was poured to the plate. The binding activity was detected through a […]. The absorbance at 415 nm (O.D.415) was measured by a microplate absorbance reader Sunrise R (TECAN GROUP LTD.). TBS-T buffer containing no phages was used as a negative control in a control experiment.
# ELISA results of the recombinant phages displaying polypeptides containing amino acid sequences represented by SEQ ID NOs: 26, 27 and 30 to 55 and the recombinant phages displaying polypeptides containing amino acid sequences represented by SEQ ID NOs: 57, 63 to 72 and 79 to 81 are shown in Table 5A and Table 5B, respectively.
row,O.D. 415,Substance
1,0.219,"71 (DGVGPGSRGVYDPETGTWYDAAWHLGELVWATYYDPETGTWEPDWQRMLGQ; IgG binding peptide, p27) [compound 71]"
2,0.229,"72 (FVSSLPNSAMYDPETGTWYDAAWHLGELVWATYYDPETGTWEPDWQRMLGQ; IgG binding peptide, p28) [compound 72]"
3,0.291,"65 (GPYNIPDSAVYDPETGTWYDAAWHLGELVWATYYDPETGTWEPDWQRMLGQ; IgG binding peptide, p5) [compound 65]"
4,0.201,"69 (VVRVDHSSAVYDPETGTWYDAAWHLGELVWATYYDPETGTWEPDWQRMLGQ; IgG binding peptide, p20) [compound 69]"
5,0.329,"79 (GSCKFSSSCHYDPETGTWYDAAWHLGELVWATYYDPETGTWEPDWQRMLGQ; IgG binding peptide, p24_2) [compound 79]"
6,0.235,"81 (LNDFLTPTAWYDPETGTWYDAAWHLGELVWATYYDPETGTWLPDWQTMAQK; IgG binding peptide, p31) [compound 81]"
7,0.186,"68 (FLVGLHAGAVYDPETGTWYDAAWHLGELVWATYYDPETGTWEPDWQRMLGQ; IgG binding peptide, p15_2) [compound 68]"
8,0.189,"70 (WMEFYPGRGVYDPETGTWYDAAWHLGELVWATYYDPETGTWEPDWQRMLGQ; IgG binding peptide, p26) [compound 70]"
9,0.213,"64 (IPYGFPGRGEYDPETGTWYDAAWHLGELVWATYYDPETGTWEPDWQRMLGQ; IgG binding peptide, p4) [compound 64]"
10,0.272,"63 (SNFVRSPSAWYDPETGTWYDAAWHLGELVWATYYDPETGTWEPDWQRMLGQ; IgG binding peptide, p2_2) [compound 63]"
11,0.25,"67 (VPPRFSSSAQYDPETGTWYDAAWHLGELVWATYYDPETGTWEPDWQRMLGQ; IgG binding peptide, p14) [compound 67]"

# Same assay, conditions: recombinant T7 phage displaying the polypeptide; absorbance at 415 nm; control 0.11
row,O.D. 415,Substance
1,0.274,"41 (DAAWHLGELVWATYYDPETGTWQPDWGRMNSK; IgG binding peptide, pep12) [compound 41]"
2,0.235,"37 (DAAWHLGELVWATYYDPETGTWLPDWDYMSSK; IgG binding peptide, pep4) [compound 37]"
3,0.29,"38 (DAAWHLGELVWATYYDPETGTWMPDWDRMLRR; IgG binding peptide, pep5) [compound 38]"
4,0.273,"39 (DAAWHLGELVWATYYDPETGTWTPDWNAMSQR; IgG binding peptide, pep6) [compound 39]"
5,0.258,"54 (DAAWHLGELVWATYYDPETGTWQPDWEIMRPF; IgG binding peptide, pep30) [compound 54]"
6,0.281,"34 (DAAWHLGELVWATYYDPETGTWEPDWSKMRPQ; IgG binding peptide, pep1) [compound 34]"
7,0.249,"45 (DAAWHLGELVWATYYDPETGTWKPDWQRMKLH; IgG binding peptide, pep17) [compound 45]"
8,0.279,"53 (DAAWHLGELVWATYYDPETGTWKPDWQVMSPVSNRSFREV; IgG binding peptide, pep29) [compound 53]"
9,0.352,"32 (DAAWHLGELVWATYYDPETGTWLPDWDVMVRQ; IgG binding peptide, pep27) [compound 32]"
10,0.25,"52 (DAAWHLGELVWATYYDPETGTWRPDWARMEPM; IgG binding peptide, pep28) [compound 52]"
11,0.255,"47 (DAAWHLGELVWATYYDPETGTWLPDWDTMTPR; IgG binding peptide, pep19) [compound 47]"
12,0.813,"43 (DAAWHLGELVWATYYDPETGTWVPDWDAMSSR; IgG binding peptide, pep15) [compound 43]"
13,0.287,"36 (DAAWHLGELVWATYYDPETGTWKPDWRMMGVP; IgG binding peptide, pep3) [compound 36]"
14,0.252,"55 (EAWHLGELVWATYYDPETGTWRPDWSRMSGR; IgG binding peptide, pep11_2) [compound 55]"
